Type in all cases: biochemical
Assay [1] concerns the target TYK2 (Homo sapiens, UniProt P29597). Nature of the assay: JAK kinase activity, homogeneous time-resolved fluorescence (TYK2 reaction system). To be noted: ATP 2 μM, TYK2 protein 0.2 ng/μL; read-out: TYK 2 activity. The essentials:
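Activity read as the 665 nm/615 nm ratio after adding EDTA-containing detection mix with anti-phospho-substrate antibody and XL-615. Beforehand, 0.2 ng/μL TYK2, 2 μM ATP, substrate and compound reacted 1 h in pH 7.0 Hepes buffer with MgCl2 and DTT. IC50 fitted with Hill-slope equation.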

Assay [2] deals with JAK1 (Homo sapiens, UniProt P23458). Kind of assay: JAK kinase activity, homogeneous time-resolved fluorescence (JAK1 reaction system). The following applies: ATP 2 μM, JAK1 protein 0.2 ng/μL; read-out: JAK 1 activity. The procedure, abridged: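 HTRF assay: JAK1 (0.2 ng/μL) with 2 μM ATP and substrate in 50 mM Hepes pH 7.0, 5 mM MgCl2, 1 mM DTT, 1 h. Phospho-substrate antibody/XL-615 detection with EDTA; 665/615 nm ratio, excitation 320 nm. IC50 from Hill-type fit against no-enzyme and no-compound controls.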
Chain of JAK1 (P23458 whole entry): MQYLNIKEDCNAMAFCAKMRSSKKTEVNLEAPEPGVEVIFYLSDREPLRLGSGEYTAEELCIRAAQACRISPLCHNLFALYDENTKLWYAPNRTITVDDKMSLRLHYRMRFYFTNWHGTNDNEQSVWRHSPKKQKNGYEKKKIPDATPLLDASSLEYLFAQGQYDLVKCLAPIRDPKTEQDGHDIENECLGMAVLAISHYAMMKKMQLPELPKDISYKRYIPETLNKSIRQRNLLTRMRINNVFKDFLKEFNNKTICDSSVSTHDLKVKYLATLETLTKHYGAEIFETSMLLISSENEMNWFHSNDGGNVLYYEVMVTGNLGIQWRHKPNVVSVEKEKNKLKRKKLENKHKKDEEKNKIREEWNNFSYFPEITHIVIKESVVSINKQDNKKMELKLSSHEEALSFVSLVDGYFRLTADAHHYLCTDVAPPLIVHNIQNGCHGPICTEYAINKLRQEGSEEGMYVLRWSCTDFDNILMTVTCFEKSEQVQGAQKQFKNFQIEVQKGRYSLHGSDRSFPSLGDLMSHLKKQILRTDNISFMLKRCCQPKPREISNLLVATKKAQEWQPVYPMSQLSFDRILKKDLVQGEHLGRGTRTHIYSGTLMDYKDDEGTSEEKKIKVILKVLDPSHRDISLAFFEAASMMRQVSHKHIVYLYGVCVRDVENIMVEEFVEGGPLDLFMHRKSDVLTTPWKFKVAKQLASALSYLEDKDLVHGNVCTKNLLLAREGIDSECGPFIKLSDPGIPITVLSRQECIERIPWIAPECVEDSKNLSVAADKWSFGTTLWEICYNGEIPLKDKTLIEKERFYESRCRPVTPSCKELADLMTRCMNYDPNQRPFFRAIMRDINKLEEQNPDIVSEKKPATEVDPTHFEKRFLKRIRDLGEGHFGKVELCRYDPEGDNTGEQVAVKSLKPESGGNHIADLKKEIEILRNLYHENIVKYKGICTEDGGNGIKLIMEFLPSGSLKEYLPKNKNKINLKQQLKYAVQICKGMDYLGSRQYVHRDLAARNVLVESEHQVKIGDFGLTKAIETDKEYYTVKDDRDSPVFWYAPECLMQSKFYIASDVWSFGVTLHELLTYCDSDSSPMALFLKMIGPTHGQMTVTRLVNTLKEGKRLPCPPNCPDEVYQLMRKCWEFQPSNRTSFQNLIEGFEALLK

Assay [3] concerns the target JAK2 (Homo sapiens, UniProt O60674). Kind of assay: JAK kinase activity, homogeneous time-resolved fluorescence (JAK2 reaction system). To be noted: ATP 2 μM, JAK2 protein 0.01 ng/μL. The essentials: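 IC50 derived by Hill-equation fit of the 665/615 nm time-resolved fluorescence ratio after EDTA-containing detection mix with anti-phosphosubstrate antibody. Preceding 1 h reaction contained 2 μM ATP, 0.01 ng/μL JAK2, substrate, 50 mM Hepes pH 7.0, 5 mM MgCl2, 1 mM DTT.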

The target of assay [4] is T1, JAK3 (Homo sapiens, UniProt P52333).
T1 sequence (P52333 1-1124): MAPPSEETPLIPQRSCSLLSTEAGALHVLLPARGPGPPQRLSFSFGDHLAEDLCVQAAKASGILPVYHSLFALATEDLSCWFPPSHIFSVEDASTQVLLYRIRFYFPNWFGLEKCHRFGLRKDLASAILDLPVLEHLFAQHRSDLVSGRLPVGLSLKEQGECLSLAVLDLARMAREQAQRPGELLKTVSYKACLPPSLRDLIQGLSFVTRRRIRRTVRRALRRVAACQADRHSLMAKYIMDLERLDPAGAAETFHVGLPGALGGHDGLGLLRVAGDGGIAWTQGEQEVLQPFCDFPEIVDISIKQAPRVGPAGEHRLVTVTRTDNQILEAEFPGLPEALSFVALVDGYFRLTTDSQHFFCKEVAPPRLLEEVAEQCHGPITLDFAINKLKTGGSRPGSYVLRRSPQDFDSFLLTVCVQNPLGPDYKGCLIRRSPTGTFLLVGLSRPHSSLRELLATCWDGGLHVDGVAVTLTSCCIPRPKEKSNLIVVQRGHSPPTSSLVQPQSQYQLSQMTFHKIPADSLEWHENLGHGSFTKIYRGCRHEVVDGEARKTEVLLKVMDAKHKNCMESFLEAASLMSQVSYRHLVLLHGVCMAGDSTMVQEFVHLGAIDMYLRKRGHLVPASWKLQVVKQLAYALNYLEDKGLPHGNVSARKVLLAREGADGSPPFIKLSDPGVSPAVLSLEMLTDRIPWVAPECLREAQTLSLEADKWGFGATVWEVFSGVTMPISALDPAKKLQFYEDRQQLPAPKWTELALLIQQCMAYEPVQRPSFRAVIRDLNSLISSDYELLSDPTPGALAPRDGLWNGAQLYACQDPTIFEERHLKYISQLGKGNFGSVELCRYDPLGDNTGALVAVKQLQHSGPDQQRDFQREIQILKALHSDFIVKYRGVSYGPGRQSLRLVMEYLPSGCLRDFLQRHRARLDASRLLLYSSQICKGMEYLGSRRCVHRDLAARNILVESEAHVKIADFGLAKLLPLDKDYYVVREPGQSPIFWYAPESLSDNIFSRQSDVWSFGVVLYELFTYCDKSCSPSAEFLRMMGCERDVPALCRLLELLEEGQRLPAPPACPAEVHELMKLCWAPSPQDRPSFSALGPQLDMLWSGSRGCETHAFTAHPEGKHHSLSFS
Nature of the assay: JAK kinase activity, homogeneous time-resolved fluorescence (JAK3 reaction system). To be noted: ATP 2 μM, JAK3 protein 0.04 ng/μL; read-out: JAK 3 activity.

Chain of TYK2 (P29597 whole entry): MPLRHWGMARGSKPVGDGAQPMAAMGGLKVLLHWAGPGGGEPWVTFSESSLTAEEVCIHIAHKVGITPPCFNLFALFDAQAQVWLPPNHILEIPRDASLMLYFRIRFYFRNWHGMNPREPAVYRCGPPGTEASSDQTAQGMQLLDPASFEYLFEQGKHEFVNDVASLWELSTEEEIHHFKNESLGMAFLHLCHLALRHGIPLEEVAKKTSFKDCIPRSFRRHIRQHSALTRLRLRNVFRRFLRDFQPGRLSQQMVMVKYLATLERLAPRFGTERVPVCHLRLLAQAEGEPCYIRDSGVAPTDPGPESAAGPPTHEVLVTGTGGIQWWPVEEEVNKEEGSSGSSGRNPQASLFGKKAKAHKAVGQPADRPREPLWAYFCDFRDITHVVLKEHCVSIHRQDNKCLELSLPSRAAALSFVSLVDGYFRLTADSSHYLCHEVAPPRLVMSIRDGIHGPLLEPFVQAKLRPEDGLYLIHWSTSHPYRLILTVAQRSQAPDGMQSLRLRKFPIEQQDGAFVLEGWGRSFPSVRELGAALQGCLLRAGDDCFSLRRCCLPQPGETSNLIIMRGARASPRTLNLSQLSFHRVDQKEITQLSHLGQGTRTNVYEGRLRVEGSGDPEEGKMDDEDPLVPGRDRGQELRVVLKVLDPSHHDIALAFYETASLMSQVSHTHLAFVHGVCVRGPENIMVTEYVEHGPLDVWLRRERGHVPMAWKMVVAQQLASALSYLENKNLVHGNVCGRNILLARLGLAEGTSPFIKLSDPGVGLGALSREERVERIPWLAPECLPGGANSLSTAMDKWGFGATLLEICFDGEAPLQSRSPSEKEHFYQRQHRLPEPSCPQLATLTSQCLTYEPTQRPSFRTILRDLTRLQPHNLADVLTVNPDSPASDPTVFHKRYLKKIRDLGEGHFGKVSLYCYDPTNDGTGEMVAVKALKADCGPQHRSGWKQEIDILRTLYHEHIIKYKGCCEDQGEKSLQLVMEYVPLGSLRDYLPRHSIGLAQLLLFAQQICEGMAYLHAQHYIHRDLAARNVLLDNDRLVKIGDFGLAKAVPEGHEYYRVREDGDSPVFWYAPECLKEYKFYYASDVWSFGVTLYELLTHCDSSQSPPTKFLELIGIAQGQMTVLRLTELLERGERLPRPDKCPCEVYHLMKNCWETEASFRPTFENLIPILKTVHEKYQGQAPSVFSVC
Chain of JAK2 (O60674 whole entry): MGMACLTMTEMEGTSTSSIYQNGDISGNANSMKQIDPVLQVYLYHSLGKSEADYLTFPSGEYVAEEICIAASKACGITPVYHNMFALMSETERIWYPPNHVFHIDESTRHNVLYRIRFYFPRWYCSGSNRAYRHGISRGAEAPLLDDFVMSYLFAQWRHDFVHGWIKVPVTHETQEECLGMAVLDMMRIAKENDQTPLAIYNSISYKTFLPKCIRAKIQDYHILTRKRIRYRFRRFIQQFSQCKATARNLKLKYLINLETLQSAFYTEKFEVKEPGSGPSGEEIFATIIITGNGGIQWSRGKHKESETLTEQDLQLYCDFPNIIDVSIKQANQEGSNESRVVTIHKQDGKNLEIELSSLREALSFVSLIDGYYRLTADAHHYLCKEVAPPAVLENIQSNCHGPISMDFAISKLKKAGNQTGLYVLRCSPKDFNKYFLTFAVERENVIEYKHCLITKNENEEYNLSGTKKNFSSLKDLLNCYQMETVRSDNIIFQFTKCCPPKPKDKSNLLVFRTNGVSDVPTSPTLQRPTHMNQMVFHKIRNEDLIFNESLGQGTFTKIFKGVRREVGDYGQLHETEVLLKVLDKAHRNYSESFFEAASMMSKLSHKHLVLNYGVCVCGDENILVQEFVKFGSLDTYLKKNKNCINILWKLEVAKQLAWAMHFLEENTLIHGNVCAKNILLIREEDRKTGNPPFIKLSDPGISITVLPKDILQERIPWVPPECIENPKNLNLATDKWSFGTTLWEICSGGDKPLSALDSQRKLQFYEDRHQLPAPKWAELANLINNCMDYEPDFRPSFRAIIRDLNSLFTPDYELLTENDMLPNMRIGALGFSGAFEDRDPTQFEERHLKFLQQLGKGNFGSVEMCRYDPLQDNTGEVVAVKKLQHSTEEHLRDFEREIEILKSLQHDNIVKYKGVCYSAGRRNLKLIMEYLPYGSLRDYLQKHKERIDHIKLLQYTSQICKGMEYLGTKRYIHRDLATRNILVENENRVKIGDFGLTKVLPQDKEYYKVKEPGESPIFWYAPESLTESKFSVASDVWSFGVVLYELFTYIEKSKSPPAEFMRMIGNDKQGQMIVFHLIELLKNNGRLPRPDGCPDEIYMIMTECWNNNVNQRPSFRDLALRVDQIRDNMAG

With `O=C1NCCCCOCc2cc(ccc2OCC2CCOC2)Nc2nccc(n2)-c2ccc1cc2[N+](=O)[O-]` (stereo not shown) [Example 124, 1^2-nitro-4^4-((tetrahydrofuran-3-yl)methoxy)-6-oxa-3,11-diaza-2(4,2)-pyrimidina-1(1,4),4(1,3)-dibenzena-cyclododecaphan-12-one], the IC50 in assay [1] was greater than 10000 nM; in assay [2], 1000 to 10000 nM; in assay [3], 1000 to 10000 nM; in assay [4], 101 to 1000 nM.
`Nc1cc2ccc1-c1ccnc(n1)Nc1ccc(OCC3CCOC3)c(c1)COCCCCNC2=O` (stereo not shown) [Example 125, 1^2-amino-4^4-((tetrahydrofuran-3-yl)methoxy)-6-oxa-3,11-diaza-2(4,2)-pyrimidina-1(1,4),4(1,3)-dibenz-enacyclododecaphan-12-one]: the IC50 is 1000 to 10000 nM in assay [1], 101 to 1000 nM in assay [2], 101 to 1000 nM in assay [3] and less than 10 nM in assay [4].
Consider `O=C1NCCCCOCc2cc(ccc2OCC2CC(F)(F)C2)Nc2nccc(n2)-c2ccc1cc2[N+](=O)[O-]` [Example 126, 4^4-((3,3-Difluorocyclobutyl)methoxy)-1^2-nitro-6-oxa-3,11-diaza-2(4,2)-pyrimidina-1(1,4),4(1,3)-di-benzenacyclododecaphan-12-one], for which the IC50 in assay [1] was greater than 10000 nM; in assay [2], greater than 10000 nM; in assay [3], 1000 to 10000 nM; in assay [4], 101 to 1000 nM.
As to `Nc1cc2ccc1-c1ccnc(n1)Nc1ccc(OCC3CC(F)(F)C3)c(c1)COCCCCNC2=O` [Example 127, 1^2-Amino-4^4-((3,3-difluorocyclo-butyl)methoxy)-6-oxa-3,11-diaza-2(4,2)-pyrimidina-1(1,4),4(1,3)-di-benzenacyclododecaphan-12-one], the IC50 in assay [1] is 1000 to 10000 nM; in assay [2], 1000 to 10000 nM; in assay [3], 101 to 1000 nM; in assay [4] it was less than 10 nM.
As for `CC1CCNC(=O)c2ccc(c([N+](=O)[O-])c2)-c2ccnc(n2)Nc2ccc(OCC3CCCC3)c(c2)COC1` (stereo not shown) [Example 128, 4^4-(cyclopentylmethoxy)-8-methyl-1^2-nitro-6-oxa-3,11-diaza-2(4,2)-pyrimidina-1(1,4),4(1,3)-dibenzena-cyclododecaphan-12-one], the IC50 is greater than 10000 nM in assay [1], greater than 10000 nM in assay [2], greater than 10000 nM in assay [3] and 101 to 1000 nM in assay [4].
Take `CC1CCNC(=O)c2ccc(c([N+](=O)[O-])c2)-c2ccnc(n2)Nc2ccc(Oc3cccnc3)c(c2)COC1` (stereo not shown) [Example 129, 8-methyl-1^2-nitro-4^4-(pyridin-3-ox-yl)-6-oxa-3,11-diaza-2(4,2)-pyrimi-dina-1(1,4),4(1,3)-dibenzenacyclo-dodecaphan-12-one]: the IC50 in assay [1] is greater than 10000 nM; in assay [2] it was 1000 to 10000 nM; in assay [3], 1000 to 10000 nM; in assay [4] it was 101 to 1000 nM.
As to `CC1CCNC(=O)c2ccc(c(N)c2)-c2ccnc(n2)Nc2ccc(Oc3cccnc3)c(c2)COC1` (stereo not shown) [Example 130, 1^2-amino-8-methyl-4^4-(pyridin-3-oxy)-6-oxa-3,11-diaza-2(4,2)-pyri-midina-1(1,4),4(1,3)-dibenzenacyclo-dodecaphan-12-one], the IC50 in assay [1] was greater than 10000 nM; in assay [2] it was 1000 to 10000 nM; in assay [3], 101 to 1000 nM; in assay [4], 11 to 100 nM.
Taken in the same sequence, the figures for `CC1CCNC(=O)c2ccc(c(N)c2)-c2ccnc(n2)Nc2ccc(OCC3CCCC3)c(c2)COC1` (stereo not shown) [Example 131, 1^2-amino-4^4-(cyclopentylmethoxy)-8-methyl-6-oxa-3,11-diaza-2(4,2)-pyrimidina-1(1,4),4(1,3)-dibenzena-cyclododecaphan-12-one] were greater than 10000 nM, 1000 to 10000 nM, 101 to 1000 nM and 11 to 100 nM.
With `CC1CCNC(=O)c2ccc(c(N)c2)-c2ccnc(n2)Nc2ccc(OCC(F)(F)F)c(c2)COC1` (stereo not shown) [Example 132], the IC50 in assay [1] was greater than 10000 nM; in assay [2], 1000 to 10000 nM; in assay [3] it was 101 to 1000 nM; in assay [4] it was less than 10 nM.
Taken in the same sequence, the figures for `O=C1NCCCCOCc2cc(ccc2OCC2CCc3ccccc32)Nc2nccc(n2)-c2ccc1cc2[N+](=O)[O-]` (stereo not shown) [Example 133, 4^4-((2,3-dihydro-1H-inden-1-yl)methoxy)-1^2-nitro-6-oxa-3,11-diaza-2(4,2)-pyrimidina-1(1,4),4(1,3)-dibenzenacyclododecaphan-12-one] were greater than 10000 nM, greater than 10000 nM, greater than 10000 nM and 1000 to 10000 nM.
`Nc1cc2ccc1-c1ccnc(n1)Nc1ccc(OCC3CCc4ccccc43)c(c1)COCCCCNC2=O` (stereo not shown) [Example 134, 1^2-amino-4^4-((2,3-dihydro-1H-inden-1-yl)methoxy)-6-oxa-3,11-diaza-2(4,2)-pyrimidina-1(1,4),4(1,3)-dibenzenacyclododecaphan-12-one]: the IC50 in assay [1] lay within 1000 to 10000 nM; in assay [2], 1000 to 10000 nM; in assay [3] it was 1000 to 10000 nM; in assay [4] it was 11 to 100 nM.
Regarding `CC1CCNC(=O)c2ccc(c([N+](=O)[O-])c2)-c2ccnc(n2)Nc2ccc(OCC3CCOC3)c(c2)COC1` (stereo not shown) [Example 135, 8-methyl-1^2-nitro-4^4-((tetrahydro-furan-3-yl)methoxy)-6-oxa-3,11-diaza-2(4,2)-pyrimidina-1(1,4),4(1,3)-dibenzenacyclododecaphan-12-one], the IC50 is greater than 10000 nM in assay [1], 1000 to 10000 nM in assay [2], 1000 to 10000 nM in assay [3] and 101 to 1000 nM in assay [4].
Regarding `CC1CCNC(=O)c2ccc(c(N)c2)-c2ccnc(n2)Nc2ccc(OCC3CCOC3)c(c2)COC1` (stereo not shown) [Example 136, 1^2-amino-8-methyl-4^4-((tetrahydro-furan-3-yl)methoxy)-6-oxa-3,11-diaza-2(4,2)-pyrimidina-1(1,4),4(1,3)-dibenzenacyclododecaphan-12-one], the IC50 is 1000 to 10000 nM in assay [1], 1000 to 10000 nM in assay [2], 101 to 1000 nM in assay [3] and less than 10 nM in assay [4].
Take `CC1CCNC(=O)c2ccc(c([N+](=O)[O-])c2)-c2ccnc(n2)Nc2ccc(OC3CCCOC3)c(c2)COC1` (stereo not shown) [Example 137, 8-methyl-1^2-nitro-4^4-((tetrahydro-2H-pyran-3-yl)oxy)-6-oxa-3,11-di-aza-2(4,2)-pyrimidina-1(1,4),4(1,3)-dibenzenacyclododecaphan-12-one]: the IC50 is greater than 10000 nM in assay [1], 1000 to 10000 nM in assay [2], 1000 to 10000 nM in assay [3] and 101 to 1000 nM in assay [4].
For the compound `CC1CCNC(=O)c2ccc(c(N)c2)-c2ccnc(n2)Nc2ccc(OC3CCCOC3)c(c2)COC1` (stereo not shown) [Example 138], the IC50 in assay [1] is 1000 to 10000 nM; in assay [2], 1000 to 10000 nM; in assay [3] it was 101 to 1000 nM; in assay [4], less than 10 nM.
For the compound `CC1CCNC(=O)c2ccc(c([N+](=O)[O-])c2)-c2ccnc(n2)Nc2ccc(OCC3CCCOC3)c(c2)COC1` (stereo not shown) [Example 139, 8-methyl-1^2-nitro-4^4-((tetrahydro-2H-pyran-3-yl)methoxy)-6-oxa-3,11-diaza-2(4,2)-pyrimidina-1(1,4),4(1,3)-dibenzenacyclododecaphan-12-one], the IC50 is greater than 10000 nM in assay [1], 1000 to 10000 nM in assay [2], 1000 to 10000 nM in assay [3] and 101 to 1000 nM in assay [4].
